In patent US20120121591A1 (priority 2009, published 2012):

Tests used:
Format in all cases: cell-based
hKv1.3 = hKv1.3 (Homo sapiens, UniProt P22001); assay: cell-based; conditions: Kv1.3 (IWQ) IC50 (nM, Avg)
[1] = test system: IL-2 secretion from T cells in human whole blood; conditions: read-out: WB (IL-2) IC50 (nM, Avg)
[2] = test system: IFN-g secretion from T cells in human whole blood; conditions: read-out: WB (IFNg) IC50 (nM, Avg)

Chain of hKv1.3 (P22001 whole entry): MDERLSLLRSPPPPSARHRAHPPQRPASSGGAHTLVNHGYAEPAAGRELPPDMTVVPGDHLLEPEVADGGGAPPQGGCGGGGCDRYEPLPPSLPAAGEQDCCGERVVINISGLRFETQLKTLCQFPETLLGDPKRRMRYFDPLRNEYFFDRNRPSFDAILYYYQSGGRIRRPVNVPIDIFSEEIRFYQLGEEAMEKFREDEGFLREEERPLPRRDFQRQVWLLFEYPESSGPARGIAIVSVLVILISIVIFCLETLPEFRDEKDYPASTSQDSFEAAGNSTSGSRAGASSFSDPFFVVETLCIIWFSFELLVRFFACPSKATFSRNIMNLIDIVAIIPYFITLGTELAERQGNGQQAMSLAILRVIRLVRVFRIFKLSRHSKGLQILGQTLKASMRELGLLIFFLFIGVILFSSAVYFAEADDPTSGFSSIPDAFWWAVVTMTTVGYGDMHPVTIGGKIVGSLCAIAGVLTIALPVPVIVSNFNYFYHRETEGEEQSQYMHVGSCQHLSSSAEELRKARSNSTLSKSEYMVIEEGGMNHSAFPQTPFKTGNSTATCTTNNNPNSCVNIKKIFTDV

`CC[C@@H]1NC(=O)[C@H](CO)NC(=O)[C@H](Cc2c[nH]cn2)NC(=O)[C@H](CCCCN)NC(=O)[C@@H]2CSSC[C@@H]3NC(=O)[C@H]([C@@H](C)O)NC(=O)[C@H](CCCCN)NC(=O)[C@H](CCCNC(=N)N)NC(=O)[C@H](CSSC[C@H](NC(=O)[C@H](CCCNC(=N)N)NC(=O)[C@H](CO)NC(=O)[C@H](CCCCN)NC(=O)[C@@H]4CCCN4C(=O)[C@H]([C@@H](C)CC)NC(=O)[C@H]([C@@H](C)O)NC(=O)[C@H](CC(=O)O)NC(=O)[C@H]([C@@H](C)CC)NC(=O)[C@@H](NC(=O)[C@H](CO)NC(=O)[C@@H](N)CCCNC(=N)N)CSSC[C@@H](C(N)=O)NC(=O)[C@H]([C@@H](C)O)NC(=O)CNC3=O)C(=O)N[C@@H]([C@@H](C)O)C(=O)N[C@@H](C)C(=O)N[C@@H](Cc3ccccc3)C(=O)N[C@@H](CCCCN)C(=O)N2)NC(=O)[C@H](Cc2ccccc2)NC(=O)[C@H](CO)NC(=O)[C@H](CC(C)C)NC(=O)[C@H](CCCNC(=N)N)NC(=O)[C@H](Cc2ccc(O)cc2)NC(=O)[C@H](CCCCN)NC1=O` [[Lys16, Abu21]ShK-amide] was tested, and the IC50 (hKv1.3) was 0.246 nM, the IC50 [1] was 1.2 nM and the IC50 [2] was 1.53 nM.

In the case of `CC[C@H](C)[C@@H]1NC(=O)[C@@H](NC(=O)[C@H](CO)NC(=O)[C@@H](N)CCCNC(=N)N)CSSC[C@@H](C(N)=O)NC(=O)[C@H]([C@@H](C)O)NC(=O)CNC(=O)[C@@H]2CSSC[C@@H]3NC(=O)[C@H](CCCCN)NC(=O)[C@H](Cc4ccccc4)NC(=O)[C@H](C)NC(=O)[C@H]([C@@H](C)O)NC(=O)[C@H](CSSC[C@H](NC(=O)[C@H](Cc4ccccc4)NC(=O)[C@H](CO)NC(=O)[C@H](CC(C)C)NC(=O)[C@H](CCCNC(=N)N)NC(=O)[C@H](Cc4ccc(O)cc4)NC(=O)[C@H](CCCCN)NC(=O)[C@H](CC(=O)O)NC(=O)[C@H](CO)NC(=O)[C@H](Cc4c[nH]cn4)NC(=O)[C@H](CCCCN)NC3=O)C(=O)N[C@@H](CCCNC(=N)N)C(=O)N[C@@H](CCCCN)C(=O)N[C@@H]([C@@H](C)O)C(=O)N2)NC(=O)[C@H](CCCNC(=N)N)NC(=O)[C@H](CO)NC(=O)[C@H](CCCCN)NC(=O)[C@@H]2CCCN2C(=O)[C@H]([C@@H](C)CC)NC(=O)[C@H]([C@@H](C)O)NC(=O)[C@H](CC(=O)O)NC1=O` [[Lys16, Asp21]ShK-amide], the IC50 (hKv1.3) is reported as 0.35 nM, the IC50 [1] is reported as 2.31 nM and the IC50 [2] is reported as 3.63 nM.

Work on `CC[C@H](C)[C@@H]1NC(=O)[C@@H](NC(=O)[C@H](CO)NC(=O)[C@@H](N)CCCNC(=N)N)CSSC[C@@H](C(N)=O)NC(=O)[C@H]([C@@H](C)O)NC(=O)CNC(=O)[C@@H]2CSSC[C@@H]3NC(=O)[C@H](CCCCN)NC(=O)[C@H](Cc4ccccc4)NC(=O)[C@H](C)NC(=O)[C@H]([C@@H](C)O)NC(=O)[C@H](CSSC[C@H](NC(=O)[C@H](Cc4ccccc4)NC(=O)[C@H](CO)NC(=O)[C@H](CC(C)C)NC(=O)[C@H](CCCNC(=N)N)NC(=O)[C@H](Cc4ccc(O)cc4)NC(=O)[C@H](CCCCN)NC(=O)[C@H](CC4CCCCC4)NC(=O)[C@H](CO)NC(=O)[C@H](Cc4c[nH]cn4)NC(=O)[C@H](CCCCN)NC3=O)C(=O)N[C@@H](CCCNC(=N)N)C(=O)N[C@@H](CCCCN)C(=O)N[C@@H]([C@@H](C)O)C(=O)N2)NC(=O)[C@H](CCCNC(=N)N)NC(=O)[C@H](CO)NC(=O)[C@H](CCCCN)NC(=O)[C@@H]2CCCN2C(=O)[C@H]([C@@H](C)CC)NC(=O)[C@H]([C@@H](C)O)NC(=O)[C@H](CC(=O)O)NC1=O` [[Lys16, Cha21]ShK-amide] yielded an IC50 (hKv1.3) of 0.499 nM, an IC50 [1] of 1.74 nM and an IC50 [2] of 1.32 nM.

`CC[C@H](C)[C@@H]1NC(=O)[C@@H](NC(=O)[C@H](CO)NC(=O)[C@@H](N)CCCNC(=N)N)CSSC[C@@H](C(N)=O)NC(=O)[C@H]([C@@H](C)O)NC(=O)CNC(=O)[C@@H]2CSSC[C@@H]3NC(=O)[C@H](CCCCN)NC(=O)[C@H](Cc4ccccc4)NC(=O)[C@H](C)NC(=O)[C@H]([C@@H](C)O)NC(=O)[C@H](CSSC[C@H](NC(=O)[C@H](Cc4ccccc4)NC(=O)[C@H](CO)NC(=O)[C@H](CC(C)C)NC(=O)[C@H](CCCNC(=N)N)NC(=O)[C@H](Cc4ccc(O)cc4)NC(=O)[C@H](CCCCN)NC(=O)[C@H](C4CCCCC4)NC(=O)[C@H](CO)NC(=O)[C@H](Cc4c[nH]cn4)NC(=O)[C@H](CCCCN)NC3=O)C(=O)N[C@@H](CCCNC(=N)N)C(=O)N[C@@H](CCCCN)C(=O)N[C@@H]([C@@H](C)O)C(=O)N2)NC(=O)[C@H](CCCNC(=N)N)NC(=O)[C@H](CO)NC(=O)[C@H](CCCCN)NC(=O)[C@@H]2CCCN2C(=O)[C@H]([C@@H](C)CC)NC(=O)[C@H]([C@@H](C)O)NC(=O)[C@H](CC(=O)O)NC1=O` [[Lys16, Chg21]ShK-amide] was tested, and the IC50 (hKv1.3) was 0.205 nM, the IC50 [1] was 0.875 nM and the IC50 [2] was 0.727 nM.

`CC[C@H](C)[C@@H]1NC(=O)[C@@H](NC(=O)[C@H](CO)NC(=O)[C@@H](N)CCCNC(=N)N)CSSC[C@@H](C(N)=O)NC(=O)[C@H]([C@@H](C)O)NC(=O)CNC(=O)[C@@H]2CSSC[C@@H]3NC(=O)[C@H](CCCCN)NC(=O)[C@H](Cc4ccccc4)NC(=O)[C@H](C)NC(=O)[C@H]([C@@H](C)O)NC(=O)[C@H](CSSC[C@H](NC(=O)[C@H](Cc4ccccc4)NC(=O)[C@H](CO)NC(=O)[C@H](CC(C)C)NC(=O)[C@H](CCCNC(=N)N)NC(=O)[C@H](Cc4ccc(O)cc4)NC(=O)[C@H](CCCCN)NC(=O)[C@H](CCC(N)=O)NC(=O)[C@H](CO)NC(=O)[C@H](Cc4c[nH]cn4)NC(=O)[C@H](CCCCN)NC3=O)C(=O)N[C@@H](CCCNC(=N)N)C(=O)N[C@@H](CCCCN)C(=O)N[C@@H]([C@@H](C)O)C(=O)N2)NC(=O)[C@H](CCCNC(=N)N)NC(=O)[C@H](CO)NC(=O)[C@H](CCCCN)NC(=O)[C@@H]2CCCN2C(=O)[C@H]([C@@H](C)CC)NC(=O)[C@H]([C@@H](C)O)NC(=O)[C@H](CC(=O)O)NC1=O` [[Lys16, Gln21]ShK-amide] was tested, and the IC50 (hKv1.3) was 0.161 nM, the IC50 [1] was 0.42 nM and the IC50 [2] was 0.812 nM.

`CC[C@H](C)[C@@H]1NC(=O)[C@@H](NC(=O)[C@H](CO)NC(=O)[C@@H](N)CCCNC(=N)N)CSSC[C@@H](C(N)=O)NC(=O)[C@H]([C@@H](C)O)NC(=O)CNC(=O)[C@@H]2CSSC[C@@H]3NC(=O)[C@H](CCCCN)NC(=O)[C@H](Cc4ccccc4)NC(=O)[C@H](C)NC(=O)[C@H]([C@@H](C)O)NC(=O)[C@H](CSSC[C@H](NC(=O)[C@H](Cc4ccccc4)NC(=O)[C@H](CO)NC(=O)[C@H](CC(C)C)NC(=O)[C@H](CCCNC(=N)N)NC(=O)[C@H](Cc4ccc(O)cc4)NC(=O)[C@H](CCCCN)NC(=O)[C@H](CCSC)NC(=O)[C@H](CO)NC(=O)[C@H](Cc4c[nH]cn4)NC(=O)[C@H](CCC(=O)O)NC3=O)C(=O)N[C@@H](CCCNC(=N)N)C(=O)N[C@@H](CCCCN)C(=O)N[C@@H]([C@@H](C)O)C(=O)N2)NC(=O)[C@H](CCCNC(=N)N)NC(=O)[C@H](CO)NC(=O)[C@H](CCCCN)NC(=O)[C@@H]2CCCN2C(=O)[C@H]([C@@H](C)CC)NC(=O)[C@H]([C@@H](C)O)NC(=O)[C@H](CC(=O)O)NC1=O` [[Lys16, Glu18]ShK-amide] was tested, and the IC50 (hKv1.3) was 0.065 nM, the IC50 [1] was 0.119 nM and the IC50 [2] was 0.234 nM.

`CC[C@H](C)[C@@H]1NC(=O)[C@@H](NC(=O)[C@H](CO)NC(=O)[C@@H](N)CCCNC(=N)N)CSSC[C@@H](C(N)=O)NC(=O)[C@H]([C@@H](C)O)NC(=O)CNC(=O)[C@@H]2CSSC[C@@H]3NC(=O)[C@H](CCCCN)NC(=O)[C@H](Cc4ccccc4)NC(=O)[C@H](C)NC(=O)[C@H]([C@@H](C)O)NC(=O)[C@H](CSSC[C@H](NC(=O)[C@H](Cc4ccccc4)NC(=O)[C@H](CO)NC(=O)[C@H](CC(C)C)NC(=O)[C@H](CCCNC(=N)N)NC(=O)[C@H](Cc4ccc(O)cc4)NC(=O)[C@H](CCCCN)NC(=O)[C@H](CCSC)NC(=O)[C@H](CO)NC(=O)[C@H](Cc4c[nH]cn4)NC(=O)[C@H](CCCCN)NC3=O)C(=O)N[C@@H](CCCNC(=N)N)C(=O)N[C@@H](CCC(=O)O)C(=O)N[C@@H]([C@@H](C)O)C(=O)N2)NC(=O)[C@H](CCCNC(=N)N)NC(=O)[C@H](CO)NC(=O)[C@H](CCCCN)NC(=O)[C@@H]2CCCN2C(=O)[C@H]([C@@H](C)CC)NC(=O)[C@H]([C@@H](C)O)NC(=O)[C@H](CC(=O)O)NC1=O` [[Lys16, Glu30]ShK-amide] showed an IC50 (hKv1.3) of 0.028 nM, an IC50 [1] of 0.105 nM and an IC50 [2] of 0.144 nM.

`CC[C@H](C)[C@@H]1NC(=O)[C@@H](NC(=O)[C@H](CO)NC(=O)[C@@H](N)CCCNC(=N)N)CSSC[C@@H](C(=O)O)NC(=O)[C@H]([C@@H](C)O)NC(=O)CNC(=O)[C@@H]2CSSC[C@@H]3NC(=O)[C@H](CCCCN)NC(=O)[C@H](Cc4ccccc4)NC(=O)[C@H](C)NC(=O)[C@H]([C@@H](C)O)NC(=O)[C@H](CSSC[C@H](NC(=O)[C@H](Cc4ccccc4)NC(=O)[C@H](CO)NC(=O)[C@H](CC(C)C)NC(=O)[C@H](CCCNC(=N)N)NC(=O)[C@H](Cc4ccc(O)cc4)NC(=O)[C@H](CCCCN)NC(=O)[C@H](CCSC)NC(=O)[C@H](CO)NC(=O)[C@H](Cc4c[nH]cn4)NC(=O)[C@H](CCCCN)NC3=O)C(=O)N[C@@H](CCCNC(=N)N)C(=O)N[C@@H](CCC(=O)O)C(=O)N[C@@H]([C@@H](C)O)C(=O)N2)NC(=O)[C@H](CCCNC(=N)N)NC(=O)[C@H](CO)NC(=O)[C@H](CCCCN)NC(=O)[C@@H]2CCCN2C(=O)[C@H]([C@@H](C)CC)NC(=O)[C@H]([C@@H](C)O)NC(=O)[C@H](CC(=O)O)NC1=O` [[Lys16, Glu30]ShK] was tested, and the IC50 (hKv1.3) was 0.073 nM, the IC50 [1] was 0.032 nM and the IC50 [2] was 0.081 nM.
